Data published in US20250129021A1, “SMALL MOLECULE PROTEIN SYNTHESIS MODULATORS” (Interdict Bio, Inc., priority 2023, published 2025).

How the values were obtained:
Type in all cases: biochemical
MYC = assay: In vitro transcription-translation (IVTT) assay, MYC reporter; details: IVTT assay, HeLa S3 lysate, MYC reporter, normalized sfGFP/mCherry ratio; half-log dilutions 30 μM-0.1 μM, 2 hrs at 30° C.
Outline: (§1)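 Reporter: mCherry, P2A, then 3×FLAG-target peptide-sfGFP fusion, IRES-initiated; HeLa S3 lysate IVTT; cpd dilutions 30 μM−0.1 μM half-log in 100% DMSO (dilution-plate conc); DNA added last; 2 h, 30° C; PBS quench.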

CCNTB1 = assay: In vitro transcription-translation (IVTT) assay, CCNTB1 reporter; details: HeLa S3 lysate, 2 hrs at 30° C.
Outline: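 HeLa S3 lysate-based coupled transcription-translation reactions with reporter plasmids, compounds in half-log dilutions (30 μM−0.1 μM, in DMSO), 2 h at 30° C. sfGFP/mCherry ratio, corrected for no-DNA background, normalized to no-drug control and fitted for IC50.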

MCL-1 = assay: In vitro transcription-translation (IVTT) assay, MCL-1 reporter; details: IVTT, HeLa S3 lysate, 2 hrs at 30° C.; read-out: MCL1 IC50
Outline: as §1

CCNE1 = assay: In vitro transcription-translation (IVTT) assay, CCNE1 reporter; details: HeLa S3 lysate, 2 hrs at 30° C.
Method: Each preparation takes 8 cell pellets (4 ml packed volume each, approximately 1.0×10^9 cells per pellet). Thaw cell pellets from −80° C. on ice for 90 mins. Lay pellets horizontally on top of the ice and rotate every 30 mins to ensure even thawing. Once thawed, add 4 mL of cold lysis buffer to each pellet, and using a serological pipet, gently pipet up and down to break up clumps. Incubate resuspended cells in ice for an additional 30 mins (plunged into ice). During 30 min incubation, rinse and RNase-zap (Ambion) glass dounces (use loose pestle “A”), gently dry and place on ice until needed. Prepare RNase-free Eppendorf tubes for spinning and for batch storage. Add batch labels to 1.5-1.7 mL RNase-free microcentrifuge tubes (labeling scheme below). Each batch will have an extra 1.5-1.7 mL RNase-free microcentrifuge tube for 40 μL of lysate, label the top of this tube (labeling scheme below). After 30 min incubation, transfer all 8 mL of cell pellet to dounce. Cell lysis is complete after douncing 100 times. Aliquot cell lysis into 1.5-1.7 mL temporary-microcentrifuge tubes. Place tubes in centrifuge with “fins” out, and spin at 1,200×g for 5 mins. After the first spin use a 1 mL pipet to resuspend each tube and repeat spin. This acts as an additional lysis step, is more vigorous and increases lysate yield. During second spin get liquid N2 and a fresh conical tube on ice. After spin is complete, transfer supernatant (lysate) from microcentrifuge tubes into the 50 mL conical tube and keep on ice. Repeat steps 10-14 for all other cell pellets until completed. Once all cell lysate has been transferred to the 50 mL conical tube pipet to mix so the solution is homogenous. Transfer 1 mL of lysate into batch-labeled microcentrifuge tubes and flash freeze in liquid nitrogen. Be sure to pipet up and down to mix throughout transfer step. Place all tubes in the […] for long-term storage.
In vitro transcription-translation assay setup: Each assay includes a master mix containing lysate and shared components, a 96-well plate containing compound titrations for testing, a 96-well DNA plate with reporter constructs to be tested, 96-well skirted PCR plates, and 96-well flat-bottom, black, fluorescent assay plates. Reaction materials setup: (A) Master mix—15 mL conical tube (3 mL of HeLa S3 Lysate described above; 0.6 mL of ThermoFisher Accessory Proteins (#88882); 1.2 ml of ThermoFisher Reaction Mix (#88882); 0.54 mL of nuclease-free Water); (B) 96-Well Master Mix+Compound Plate (Half-log dilutions (30 μM−0.1 μM) of 4 compounds of interest are prepared in 100% DMSO); 96-Well DNA Plate (Five DNA constructs are plated into single columns within the plate. Row 1 of the column contains nuclease free H2O, all other wells contain 110 ng/μL plasmid DNA). Reactions are started by mixing 155 μL of master mix and 3.5 μL of compound serial dilutions, then 9.1 μL of master mix+compound mixture is aliquoted across 5 96-well plates. Reactions begin with final addition of 2 μL of DNA for a 11.1 μL reaction volume in each well. The entire plate is sealed, and incubated for 2 hrs at 30° C. After 2 hrs, quench the assay using 45 μL of PBS, and transfer 50 μL to a flat-bottom black microplate Quantify the sfGFP and mCherry signals from each well on each plate, taking 3 reads of each plate, and perform data analysis below.
In vitro transcription-translation assay data analysis: Each plate is read three times in channels for both sfGFP and mCherry signals. The average signal across these 3 reads is then calculated for further analysis. Control wells containing no DNA reporter are subtracted from reporter wells in the same column to remove auto-fluorescence of the lysate. Then, the ratio of sfGFP/mCherry is calculated per well, and these ratios are averaged across the triplicate experiments on the same plate. Finally, the ratio of each titration concentration is normalized to the no drug control to create the normalized stalling metric. […]

CCND1 = assay: In vitro transcription-translation (IVTT) assay, CCND1 reporter; details: IVTT, HeLa S3 lysate, 2 hrs at 30° C.
Outline: as §1

SMILES | IC50 (MYC) [µM] | IC50 (CCNTB1) [µM] | IC50 (MCL-1) [µM] | IC50 (CCNE1) [µM] | IC50 (CCND1) [µM]
COc1ccc(C[C@H]2NC[C@H](O)[C@H]2OC(=O)NCCC2CCNCC2)cc1 [V188229, (2R,3S,4S)-4-hydroxy-2-[(4-methoxyphenyl)methyl]pyrrolidin-3-yl N-[2-(piperidin-4-yl)ethyl]carbamate] | < 10 | < 10 | < 10 | 10 to 20 | 10 to 20
O=C(NCc1cc[nH]c(=O)c1)O[C@@H]1[C@@H](O)CN[C@@H]1Cc1ccc(Cl)cc1 [V188274, (2R,3S,4S)-2-[(4-chlorophenyl)methyl]-4-hydroxypyrrolidin-3-yl N-[(2-oxo-1H-pyridin-4-yl)methyl]carbamate] | < 10 | < 10 | < 10 | < 10 | < 10
COc1ccc(C[C@H]2NC[C@H](O)[C@H]2OC(=O)NCc2ccc3cn[nH]c3c2)cc1 [V188151, (2R,3S,4S)-4-hydroxy-2-[(4-methoxyphenyl)methyl]pyrrolidin-3-yl N-(1H-indazol-6-ylmethyl)carbamate] | < 10 | < 10 | < 10 | < 10 | < 10
COc1ccc(C[C@H]2NC[C@H](O)[C@H]2OC(=O)NC[C@@H]2[C@@H]3CNC[C@@H]32)cc1 [V188161, (2R,3S,4S)-4-hydroxy-2-[(4-methoxyphenyl)methyl]pyrrolidin-3-yl N-[(1R,5S,6S)-3-azabicyclo[3.1.0]hexan-6-ylmethyl]carbamate] | > 30 | < 10 |  | 10 to 20 | > 30
COc1ccc(C[C@H]2NC[C@H](O)[C@H]2OC(=O)NCCn2ccnc2[N+](=O)[O-])cc1 [V188085, (2R,3S,4S)-4-hydroxy-2-[(4-methoxyphenyl)methyl]pyrrolidin-3-yl N-[2-(2-nitroimidazol-1-yl)ethyl]carbamate] | 10 to 20 | < 10 |  | < 10 | 20 to 30
COc1ccc(C[C@H]2NC[C@H](O)[C@H]2OC(=O)NCC2CCNCC2)cc1 [V188172, (2R,3S,4S)-4-hydroxy-2-[(4-methoxyphenyl)methyl]pyrrolidin-3-yl N-(piperidin-4-ylmethyl)carbamate] | > 30 | > 30 |  | > 30 | > 30
COc1ccc(C[C@H]2NC[C@H](O)[C@H]2OC(=O)NCCn2cc[nH]c2=O)cc1 [V188088, (2R,3S,4S)-4-hydroxy-2-[(4-methoxyphenyl)methyl]pyrrolidin-3-yl N-[2-(2-oxo-3H-imidazol-1-yl)ethyl]carbamate] | 20 to 30 | < 10 |  | 10 to 20 | > 30
O=C(NCc1ccc(F)cc1)O[C@@H]1[C@@H](O)CN[C@@H]1Cc1ccc(Cl)cc1 [V188271, (2R,3S,4S)-2-[(4-chlorophenyl)methyl]-4-hydroxypyrrolidin-3-yl N-[(4-fluorophenyl)methyl]carbamate] | 10 to 20 | < 10 |  | < 10 | 10 to 20
O=C(NC[C@H]1CCNC1)O[C@@H]1[C@@H](O)CN[C@@H]1Cc1ccc(Cl)cc1 [V188188, (2R,3S,4S)-2-[(4-chlorophenyl)methyl]-4-hydroxypyrrolidin-3-yl N-[(3S)-pyrrolidin-3-ylmethyl]carbamate] | > 30 | < 10 |  | < 10 | > 30
O=C(NC[C@@H]1CCOC1)O[C@@H]1[C@@H](O)CN[C@@H]1Cc1ccc(Cl)cc1 [V188288, (2R,3S,4S)-2-[(4-chlorophenyl)methyl]-4-hydroxypyrrolidin-3-yl N-[(3S)-oxolan-3-ylmethyl]carbamate] | 10 to 20 | < 10 |  | < 10 | 20 to 30
COc1ccc(C[C@H]2NC[C@H](O)[C@H]2OC(=O)NCc2ccc(-c3ncc[nH]3)cc2)cc1 [V188144, (2R,3S,4S)-4-hydroxy-2-[(4-methoxyphenyl)methyl]pyrrolidin-3-yl N-{[4-(1H-imidazol-2-yl)phenyl]methyl}carbamate] | < 10 | < 10 |  | < 10 | < 10
COc1ccc(C[C@H]2NC[C@H](O)[C@H]2OC(=O)NCCO[C@@H]2CCNC2)cc1 [V188071, (2R,3S,4S)-4-hydroxy-2-[(4-methoxyphenyl)methyl]pyrrolidin-3-yl N-{2-[(3R)-pyrrolidin-3-yloxy]ethyl}carbamate] | 10 to 20 | < 10 |  | < 10 | 10 to 20
O=C(NCc1cccc(F)c1)O[C@@H]1[C@@H](O)CN[C@@H]1Cc1ccc(Cl)cc1 [V188270, (2R,3S,4S)-2-[(4-chlorophenyl)methyl]-4-hydroxypyrrolidin-3-yl N-[(3-fluorophenyl)methyl]carbamate] | < 10 | < 10 |  | < 10 | 10 to 20
COc1ccc(C[C@H]2NC[C@H](O)[C@H]2OC(=O)NCc2ccc(S(N)(=O)=O)cc2)cc1 [V188304, (2R,3S,4S)-4-hydroxy-2-[(4-methoxyphenyl)methyl]pyrrolidin-3-yl N-[(4-sulfamoylphenyl)methyl]carbamate] | < 10 | < 10 |  | < 10 | < 10
O=C(NCc1ccc(OC(F)(F)F)cc1)O[C@@H]1[C@@H](O)CN[C@@H]1Cc1ccc(Cl)cc1 [V188286, (2R,3S,4S)-2-[(4-chlorophenyl)methyl]-4-hydroxypyrrolidin-3-yl N-{[4-(trifluoromethoxy)phenyl]methyl}carbamate] | > 30 | > 30 |  | > 30 | > 30
COc1ccc(C[C@H]2NC[C@H](O)[C@H]2OC(=O)NCc2ccnc(C(F)(F)F)c2)cc1 [V188050, (2R,3S,4S)-4-hydroxy-2-[(4-methoxyphenyl)methyl]pyrrolidin-3-yl N-{[2-(trifluoromethyl)pyridin-4-yl]methyl}carbamate] | < 10 | < 10 |  | < 10 | < 10
O=C(NCC1(F)CC1)O[C@@H]1[C@@H](O)CN[C@@H]1Cc1ccc(Cl)cc1 [V188269, (2R,3S,4S)-2-[(4-chlorophenyl)methyl]-4-hydroxypyrrolidin-3-yl N-[(1-fluorocyclopropyl)methyl]carbamate] | > 30 | < 10 |  | 10 to 20 | > 30
O=C(NCC1CC1)O[C@@H]1[C@@H](O)CN[C@@H]1Cc1ccc(Cl)cc1 [V188275, (2R,3S,4S)-2-[(4-chlorophenyl)methyl]-4-hydroxypyrrolidin-3-yl N-(cyclopropylmethyl)carbamate] | < 10 | < 10 |  | < 10 | 10 to 20
O=C(NCc1ccc(Cl)cc1)O[C@@H]1[C@@H](O)CN[C@@H]1Cc1ccc(Cl)cc1 [V188273, (2R,3S,4S)-2-[(4-chlorophenyl)methyl]-4-hydroxypyrrolidin-3-yl N-[(4-chlorophenyl)methyl]carbamate] | > 30 | 10 to 20 |  | 20 to 30 | > 30
